Assay results taken from PMC12584665, “In vitro and in vivo efficacy of vancomycin against Elizabethkingia species and the impact of increased vancomycin MICs” (Microbiology Spectrum, 2025).
Converted amounts (≈) assume the structure as drawn. Read-outs that look alike come from different tables or passages of the source.

How the values were obtained:
[1] = test system: Elizabethkingia anophelis; assay: Broth microdilution (BMD) MIC; assay type: cell-based; details: for MIC: Elizabethkingia anophelis; for susceptibility category: all susceptibility tests, CLSI criteria for Enterococcus spp. (susceptible MIC <= 4 mg/L, zone >= 17 mm)
Excerpt: (§1) Eighteen E. anophelis clinical isolates from the nationwide surveillance program (Taiwan Surveillance of Antimicrobial Resistance) were well characterized in our previous study ([7]) and were selected for susceptibility testing and minimum bactericidal concentration (MBC) assays. Among them, five isolates with different clonality (underlined strains in Fig. S1) were selected for the time-kill assays and in vivo experiments.
(§2) Broth microdilution, disc diffusion, Etest, and agar dilution assays were conducted following CLSI guidelines to determine vancomycin MICs ([8]). […] Criteria for Staphylococcus spp. were not adopted due to the lack of a zone diameter breakpoint. MBCs were determined following CLSI guidelines ([8]).

[2] = test system: Elizabethkingia anophelis; assay: Disc diffusion (DD) zone diameter; assay type: cell-based
Excerpt: as §1, §2

[3] = test system: E. bruuniana; assay: Broth microdilution MIC of laboratory-induced mutants; assay type: cell-based
Experimental: (§3) E. anophelis and non-anophelis species with baseline vancomycin MICs of 16–32 mg/L (Table 2) were well characterized in our previous study ([7]) and were included in the induction study. The induction of mutants with elevated vancomycin MICs was modified from a previous study ([18]). Briefly, 10^9 cfu of wild-type E. anophelis (2008S01-229) was plated on brain heart infusion agar (Becton Dickinson, Franklin Lakes, NJ, USA) with twofold multiples of vancomycin (32 –256 mg/L). Isolates from viable colonies were subjected to broth microdilution. Genomic comparison between the parental strain (2008S01-229) and elevated-MIC mutants was performed to identify the mutated gene conferring increased vancomycin MIC. To determine whether similar genetic changes occurred in other Elizabethkingia species, non-anophelis isolates were subjected to the same induction protocol. The corresponding target genes were then analyzed by Sanger sequencing to assess the presence of analogous mutations. The target gene related to elevated vancomycin MICs was also validated via scarless gene editing.

[4] = test system: E. ursingii; assay: as above; assay type: cell-based
Experimental: as §3

[5] = test system: E. miricola; assay: as above; assay type: cell-based
Experimental: as §3

[6] = test system: E. meningoseptica; assay: as above; assay type: cell-based; details: Elizabethkingia meningoseptica
Experimental: as §3

[7] = test system: E. anophelis; assay: Broth microdilution MIC of laboratory-induced and gene-edited mutants; assay type: cell-based, Elizabethkingia anophelis; details: for MIC: Elizabethkingia anophelis
Experimental: as §3
The suicide plasmid pUT-ermF, which contains two key selection markers: the ermF gene for erythromycin resistance and the sacB gene for sucrose sensitivity-based counterselection, was used as previously described ([19]). DNA fragments corresponding to the upstream and downstream flanking regions of the target gene were cloned into pUT-ermF. The recombinant plasmids were first introduced into E. coli S17–λpir and subsequently transferred into Elizabethkingia spp. via conjugation. The first recombination events were selected on LB agar containing 250 µg/mL erythromycin, and the second recombination (plasmid resolution) was selected by plating on LB agar with 10% sucrose (without NaCl). Colonies were screened and confirmed by PCR sequencing. Genome sequencing was carried out to confirm no other inadvertent changes.

[8] = Serum drug levels in mice (LC-MS/MS); assay type: in vivo; details: single dose 25 mg/kg subcutaneous, mice, LC-MS/MS; in contrast to 100 mg/kg; 6 to 8 mice per group
Experimental: Fifty microliters of aliquots of murine serum was mixed with 100 µL acetonitrile. The mixture was vortexed and then centrifuged at 15,000 × g for 20 min in a Beckman Coulter Microfuge 22R Centrifuge at room temperature. The supernatant was transferred to a clean tube, and then 15 µL of the supernatant was injected onto LC-MS/MS. The chromatographic system consisted of an Agilent 1200 series LC system and an Agilent ZORBAX Eclipse XDB-C8 column (5 µm, 3.0 × 150 mm) interfaced to an MDS Sciex API3000 tandem mass spectrometer. The MS/MS ion transitions monitored were m/z 725/144 for vancomycin. A gradient HPLC method was employed for separation. Mobile phase A consisted of 10 mM ammonium acetate aqueous solution containing 0.1% formic acid and mobile phase B consisted of acetonitrile. The gradient profile was as follows (min/%B): 0.0–0.9/5, 1.0–2.0/50, 2.1–3.7/95, 3.8–5.0/5. The flow rate was set at 1.5 mL/min.

[9] = test system: Elizabethkingia anophelis; assay: Minimum bactericidal concentration (MBC) test; assay type: cell-based; details: for MBC: Elizabethkingia anophelis
Excerpt: as §1, §2

[10] = E. anophelis clinical isolate 2008N05-106
[11] = E. anophelis clinical isolate 2008S01-229
[12] = E. anophelis clinical isolate 2014C06-157
[13] = E. anophelis clinical isolate 2016N17-576
[14] = E. anophelis clinical isolate 2018C04-213
[15] = E. anophelis clinical isolate 2018C04-224
[16] = E. anophelis clinical isolate 2018C07-210
[17] = E. anophelis clinical isolate 2018C07-234
[18] = E. anophelis clinical isolate 2018C08-127
[19] = E. anophelis clinical isolate 2018E03-151
[20] = E. anophelis clinical isolate 2018E04-135
[21] = E. anophelis clinical isolate 2018N16-057
[22] = E. anophelis clinical isolate 2018N17-036
[23] = E. anophelis clinical isolate 2018N17-073
[24] = E. anophelis clinical isolate 2018N17-153
[25] = E. anophelis clinical isolate 2018N21-226
[26] = E. anophelis clinical isolate 2018S09-023
[27] = E. anophelis clinical isolate 2018S11-172

With CN[C@H](CC(C)C)C(=O)N[C@H]1C(=O)N[C@@H](CC(N)=O)C(=O)N[C@H]2C(=O)N[C@H]3C(=O)N[C@H](C(=O)N[C@H](C(=O)O)c4cc(O)cc(O)c4-c4cc3ccc4O)[C@H](O)c3ccc(c(Cl)c3)Oc3cc2cc(c3O[C@@H]2O[C@H](CO)[C@@H](O)[C@H](O)[C@H]2O[C@H]2C[C@](C)(N)[C@H](O)[C@H](C)O2)Oc2ccc(cc2Cl)[C@H]1O [Vancomycin] the “MICs, range over isolates” value ([1]; 18 E. anophelis isolates, broth microdilution, concordant with agar dilution and Etest) was 16 to 32 mg/L, the MIC ([1]; read-out: MIC, BMD, E. anophelis clinical isolate 2008N05-106) was 32 µg/mL (≈ 22.1 µM) and the MIC ([1]; read-out: MIC, BMD, E. anophelis clinical isolate 2008S01-229) was 32 µg/mL (≈ 22.1 µM). For the same molecule, the MIC ([1]; read-out: MIC, BMD, E. anophelis clinical isolate 2014C06-157) was 32 µg/mL (≈ 22.1 µM), the MIC ([1]; read-out: MIC, BMD, E. anophelis clinical isolate 2016N17-576) was 32 µg/mL (≈ 22.1 µM) and the MIC ([1]; read-out: MIC, BMD, E. anophelis clinical isolate 2018C04-213) was 16 µg/mL (≈ 11 µM). It also gave an MIC ([1]; read-out: MIC, BMD, E. anophelis clinical isolate 2018C04-224) of 16 µg/mL (≈ 11 µM), an MIC ([1]; read-out: MIC, BMD, E. anophelis clinical isolate 2018C07-210) of 16 µg/mL (≈ 11 µM) and an MIC ([1]; read-out: MIC, BMD, E. anophelis clinical isolate 2018C07-234) of 16 µg/mL (≈ 11 µM). For the same molecule, the MIC ([1]; read-out: MIC, BMD, E. anophelis clinical isolate 2018C08-127) was 16 µg/mL (≈ 11 µM), the MIC ([1]; read-out: MIC, BMD, E. anophelis clinical isolate 2018E03-151) was 16 µg/mL (≈ 11 µM) and the MIC ([1]; read-out: MIC, BMD, E. anophelis clinical isolate 2018E04-135) was 16 µg/mL (≈ 11 µM). For the same molecule, the MIC ([1]; read-out: MIC, BMD, E. anophelis clinical isolate 2018N16-057) was 16 µg/mL (≈ 11 µM), the MIC ([1]; read-out: MIC, BMD, E. anophelis clinical isolate 2018N17-036) was 32 µg/mL (≈ 22.1 µM) and the MIC ([1]; read-out: MIC, BMD, E. anophelis clinical isolate 2018N17-073) was 16 µg/mL (≈ 11 µM). For the same molecule, the MIC ([1]; read-out: MIC, BMD, E. anophelis clinical isolate 2018N17-153) was 16 µg/mL (≈ 11 µM), the MIC ([1]; read-out: MIC, BMD, E. anophelis clinical isolate 2018N21-226) was 16 µg/mL (≈ 11 µM) and the MIC ([1]; read-out: MIC, BMD, E. anophelis clinical isolate 2018S09-023) was 16 µg/mL (≈ 11 µM). For the same molecule, the MIC ([1]; read-out: MIC, BMD, E. anophelis clinical isolate 2018S11-172) was 32 µg/mL (≈ 22.1 µM), the MIC ([1]; read-out: MICs as summarised in the discussion, E. anophelis, isolates not specified) was 32 µg/mL (≈ 22.1 µM) and the susceptibility category [1] was “non-susceptible”. The susceptibility category ([1]; listed as vancomycin) was “resistant”, the “zone diameters, all isolates” value ([2]; 18 E. anophelis isolates, disc diffusion, susceptibility breakpoint >= 17 mm (Enterococcus spp.)) was < 17 mm and the DD zone diameter [2, 10] was 15 mm. It also gave a DD zone diameter [2, 11] of 15 mm, a DD zone diameter [2, 12] of 15 mm and a DD zone diameter [2, 13] of 15 mm. The DD zone diameter [2, 14] was 15 mm, the DD zone diameter [2, 15] was 15 mm and the DD zone diameter [2, 16] was 14 mm. It also gave a DD zone diameter [2, 17] of 15 mm, a DD zone diameter [2, 18] of 14 mm and a DD zone diameter [2, 19] of 14 mm. For the same molecule, the DD zone diameter [2, 20] was 14 mm, the DD zone diameter [2, 21] was 15 mm and the DD zone diameter [2, 22] was 15 mm. It also gave a DD zone diameter [2, 23] of 14 mm, a DD zone diameter [2, 24] of 14 mm and a DD zone diameter [2, 25] of 13 mm. The DD zone diameter [2, 26] was 15 mm, the DD zone diameter [2, 27] was 13 mm and the MIC [3] was 256 µg/mL. The MIC ([3]; wild-type E. bruuniana parent strain, read-out: Parent strain MIC) was 16 µg/mL, the MIC [4] was 256 µg/mL and the MIC ([4]; wild-type E. ursingii parent strain, read-out: Parent strain MIC) was 32 µg/mL. For the same molecule, the MIC ([4]; {}) was 256 µg/mL, the MIC [5] was 512 µg/mL and the MIC ([5]; wild-type E. miricola parent strain, read-out: Parent strain MIC) was 32 µg/mL. It also gave an MIC ([6]; induced E. meningoseptica mutants, pbp4 827DelA, Frameshift, 2 isolates, one value each) of 64 µg/mL, an MIC ([6]; wild-type E. meningoseptica parent strain, read-out: Parent strain MIC) of 16 µg/mL and an MIC ([7]; induced E. anophelis mutant, pbp4 692InsC, Frameshift, 1 isolate) of 512 µg/mL. The MIC ([7]; induced E. anophelis mutant, pbp4 736Del8bp, Frameshift, 1 isolate) was 512 µg/mL, the MIC ([7]; induced E. anophelis mutant, pbp4 827DelA, Frameshift, 1 isolate) was 128 µg/mL and the MIC ([7]; scarless deletion of pbp4 in wild-type E. anophelis 2008N05-106, read-out: MIC) was > 512 µg/mL. The MIC ([7]; wild-type E. anophelis parent strain (2008S01-229), read-out: Parent strain MIC) was 32 µg/mL, the “effect on MIC” value ([7]; replacement of exbD with Thr28Pro mutation in 2008N05-106) was “did not affect the vancomycin MIC” and the serum concentration-time profile [8] was “resembled that of humans”. For the same molecule, the “MBCs relative to MICs” value ([9]; 18 E. anophelis isolates) was “within a twofold range of MICs”, the MBC [9, 10] was 16 µg/mL (≈ 11 µM) and the MBC [9, 11] was 32 µg/mL (≈ 22.1 µM). The MBC [9, 12] was 16 µg/mL (≈ 11 µM), the MBC [9, 13] was 32 µg/mL (≈ 22.1 µM) and the MBC [9, 14] was 16 µg/mL (≈ 11 µM). For the same molecule, the MBC [9, 15] was 16 µg/mL (≈ 11 µM), the MBC [9, 16] was 16 µg/mL (≈ 11 µM) and the MBC [9, 17] was 16 µg/mL (≈ 11 µM). It also gave an MBC [9, 18] of 16 µg/mL (≈ 11 µM), an MBC [9, 19] of 16 µg/mL (≈ 11 µM) and an MBC [9, 20] of 16 µg/mL (≈ 11 µM). It also gave an MBC [9, 21] of 16 µg/mL (≈ 11 µM), an MBC [9, 22] of 32 µg/mL (≈ 22.1 µM) and an MBC [9, 23] of 16 µg/mL (≈ 11 µM). It also gave an MBC [9, 24] of 16 µg/mL (≈ 11 µM), an MBC [9, 25] of 16 µg/mL (≈ 11 µM) and an MBC [9, 26] of 16 µg/mL (≈ 11 µM). It also gave an MBC [9, 27] of 32 µg/mL (≈ 22.1 µM).
